Test results taken from patent US20260130372A1 (SYNGENTA CROP PROTECTION AG, priority 2022, published 2026).

Columns and labels:
Botrytis cinerea = experiment: liquid culture assay, 96well plate, photometric growth inhibition; assay type: cell-based
Description: Streptimidone (CAS: 738-72-7) was purchased from a commercial vendor. A stock solution for streptimidone was produced in DMSO (max. 10 mg/ml). Malonomicin was produced according to Law et al, 2018 (Nature Catalys is |VOL 1|December 2018|977-984). A stock solution of malonomicin was produced in water plus 0.025% Tween20.
Assays to test efficacy of mixtures of streptimidone in combination with malonomicin on the control of fungal pathogens in a liquid culture assay were designed for a 96well plate.
Table1: outline of 96well testplate including concentration of compounds per well. The upper number in the cell indicates malonomicin concentration (ppm), the lower number streptimidone concentration (ppm). Column (1) holds a dilution series of streptimidone, row (H) holds a dilution series of malonomicin, column (12) holds cells representing untreated check.
The 96 well plate design allows to compare disease control of the mixture with disease control of the respective single compound at the same rate.
A master plate with 10× concentrated solution of the compound stock solutions diluted in water plus 0.025% Tween20 was prepared. The concentration of DMSO (from the stock of streptimidone) and Tween20 was kept constant in all cells of the master plate. 10 μl was transferred from the master plate to a 96well test plate. The nutrient broth containing the fungal spores/mycelia fragments was then added to the test plate to give an end concentration of 1× for the tested compounds (as outlined in table 1). The test plates were incubated in the dark at […] and 96% rh. The inhibition of fungal growth was determined photometrically after ca 3 days, and percent fungal growth reduction relative to the untreated check was calculated. Efficacy of the mixtures was tested on a fungal species: Botrytis cinerea (EPPO code: BOTRCI)
Conidia of the fungus from cryogenic storage were directly mixed into nutrient broth (Vogel's minimal media).

Puccinia recondita [1] = experiment: leaf disc assay on wheat leaf segments, preventive spray timing; assay type: in vivo
Description: (§1) Streptimidone (CAS: 738-72-7) was purchased from a commercial vendor. A stock solution for streptimidone was produced in DMSO (max. 10 mg/ml). Malonomicin was produced according to Law et al, 2018 (Nature Catalys is |VOL 1|DECEMBER 2018|977-984). A stock solution of malonomicin was produced in water plus 0.025% Tween20.
(§2) Assays to test efficacy of mixtures of streptimidone in combination with malonomicin on the control of fungal pathogens in a leaf disc assay were designed for two 24well plates.
(§3) Table 5 and table 6: Outline of 24well testplate(1) and testplate(2) including concentration of compounds sprayed per well. The upper number in the cell indicates streptimidone concentration (ppm), the lower number malonomicin concentration (ppm). Column (1) holds a dilution series of streptimidone, row (2-D) holds a dilution series of malonomicin. Well 2-D-(1) represents an untreated check. This design was applied for tests including Puccinia recondita (EPPO code: PUCCRE) with preventive and curative spray timing.
(§4) A first set of master plates with 1× concentrated spray solution of the streptimidone stock diluted in water with concentrations according to table 5 or table 6, respectively, was prepared. Each well contained 2% DMSO and 0.025% Tween20. Accordingly, a second set of master plates with 1× concentrated malonomicin stock diluted in water was prepared. Each well of the second set contained 0.025% Tween20. Leaf segments placed on agar in 24well plates are sprayed with 8 ul of solution from the master plate containing streptimidone and the leaf segments were let to dry, followed 2 hours later by 8 ul of solution from the master plate containing malonomicin. After second sprays have dried, leaf segments are infected with fungal spores to obtrain a preventive application timing. Alternativeley, leaf segments infected one day before spray of the compounds are used, resulting in a curative spray timing. In addition, several plates were produced where leaf segments were sprayed 2× in absence of test compound (with only DMSO and Tween20), representing the untreated check samples. For each leaf segment percent leaf coverage of disease symptoms was assessed. Percent leaf coverage reduction relative to the untreated check was calculated. Efficacy of the mixtures was tested in duplicate and on different fungal species. Reported efficacy values are the average of two replicate results.
Puccinia recondita (EPPO Code: PUCCRE) with Preventive Spray Timing.
Wheat (cultivar Kanzler) leaf segments are placed on agar in multiwell plates (24-well format) and sprayed with test solutions (8 ul per well). After drying, the leaf disks are inoculated with a spore suspension of the fungus. After appropriate incubation the activity of a compound is assessed 8 dpi (days after inoculation) as preventive fungicidal activity.

Puccinia recondita [2] = experiment: leaf disc assay on wheat leaf segments, curative spray timing; assay type: in vivo
Description: as §1, §2, §3, §4
Puccinia recondita (EPPO Code: PUCCRE) with Curative Spray Timing.
Wheat (cultivar Kanzler) leaf segments are placed on agar in multiwell plates (24-well format). The leaf disks are then inoculated with a spore suspension of the fungus. One day after inoculation the test solution is sprayed (8 ul per well). After appropriate incubation the activity of a compound is assessed 8 dpi (days after inoculation) as curative fungicidal activity

NC[C@@H]1NC(=O)C(C(=O)CC(NC(=O)[C@@H](N)CO)(C(=O)O)C(=O)O)=C1O [malonomicin, {[(2S)-2-amino-3-hydroxypropanoyl]amino}{2-[(5S)-5-(aminomethyl)-4-hydroxy-2-oxo-2,5-dihydro-1H-pyrrol-3-yl]-2-oxoethyl}malonic acid]
80%: control of fungal growth (reduction of symptoms on the leaf segment) (Puccinia recondita [1]; well 2-D(4), malonomicin 6.67 ppm solo)
35%: control of fungal growth (reduction of symptoms on the leaf segment) (Puccinia recondita [2]; curative, well 2-D(6), malonomicin 0.74 ppm solo)
100%: control of fungal growth (reduction of symptoms on the leaf segment) (Puccinia recondita [1]; well 2-D(2), malonomicin 200 ppm solo) | control of fungal growth (reduction of symptoms on the leaf segment) (Puccinia recondita [1]; well 2-D(3), malonomicin 20 ppm solo) | control of fungal growth (reduction of symptoms on the leaf segment) (Puccinia recondita [2]; curative, well 2-D(2), malonomicin 200 ppm solo) | control of fungal growth (reduction of symptoms on the leaf segment) (Puccinia recondita [2]; curative, well 2-D(3), malonomicin 20 ppm solo) | control of fungal growth (reduction of symptoms on the leaf segment) (Puccinia recondita [2]; curative, well 2-D(4), malonomicin 6.67 ppm solo)
0%: control of fungal growth (Botrytis cinerea; well H(8), malonomicin 15.63 ppm solo) | control of fungal growth (Botrytis cinerea; well H(9), malonomicin 7.81 ppm solo) | control of fungal growth (Botrytis cinerea; well H(10), malonomicin 3.00 ppm solo) | control of fungal growth (Botrytis cinerea; well H(11), malonomicin 1.00 ppm solo) | control of fungal growth (reduction of symptoms on the leaf segment) (Puccinia recondita [1]; well 2-D(6), malonomicin 0.74 ppm solo)
50%: control of fungal growth (Botrytis cinerea; well H(7), malonomicin 31.25 ppm solo)
10%: control of fungal growth (reduction of symptoms on the leaf segment) (Puccinia recondita [1]; well 2-D(5), malonomicin 2.22 ppm solo)
70%: control of fungal growth (Botrytis cinerea; well H(2), malonomicin 1000 ppm solo) | control of fungal growth (Botrytis cinerea; well H(3), malonomicin 500 ppm solo) | control of fungal growth (Botrytis cinerea; well H(4), malonomicin 250 ppm solo) | control of fungal growth (Botrytis cinerea; well H(5), malonomicin 125 ppm solo) | control of fungal growth (Botrytis cinerea; well H(6), malonomicin 62.5 ppm solo) | control of fungal growth (reduction of symptoms on the leaf segment) (Puccinia recondita [2]; curative, well 2-D(5), malonomicin 2.22 ppm solo)

C=C/C(C)=C/[C@H](C)C(=O)C[C@H](O)CC1CC(=O)NC(=O)C1 [streptimidone, Streptimidone]
0%: control of fungal growth (Botrytis cinerea; well A(1), streptimidone 100 ppm solo) | control of fungal growth (Botrytis cinerea; well B(1), streptimidone 50 ppm solo) | control of fungal growth (Botrytis cinerea; well C(1), streptimidone 25 ppm solo) | control of fungal growth (Botrytis cinerea; well D(1), streptimidone 12.5 ppm solo) | control of fungal growth (Botrytis cinerea; well E(1), streptimidone 6.25 ppm solo) | control of fungal growth (Botrytis cinerea; well F(1), streptimidone 3.125 ppm solo) | control of fungal growth (Botrytis cinerea; well G(1), streptimidone 1.56 ppm solo) | control of fungal growth (reduction of symptoms on the leaf segment) (Puccinia recondita [1]; well 1-C(1), streptimidone 50 ppm solo) | control of fungal growth (reduction of symptoms on the leaf segment) (Puccinia recondita [1]; well 1-D(1), streptimidone 25 ppm solo) | control of fungal growth (reduction of symptoms on the leaf segment) (Puccinia recondita [1]; well 2-B(1), streptimidone 6.25 ppm solo) | control of fungal growth (reduction of symptoms on the leaf segment) (Puccinia recondita [1]; well 2-C(1), streptimidone 3.13 ppm solo) | control of fungal growth (reduction of symptoms on the leaf segment) (Puccinia recondita [2]; curative, well 2-B(1), streptimidone 6.25 ppm solo) | control of fungal growth (reduction of symptoms on the leaf segment) (Puccinia recondita [2]; curative, well 2-C(1), streptimidone 3.13 ppm solo) | control of fungal growth (reduction of symptoms on the leaf segment) (Puccinia recondita [2]; in vivo)
20%: control of fungal growth (reduction of symptoms on the leaf segment) (Puccinia recondita [2]; curative, well 1-A(1), streptimidone 200 ppm solo) | control of fungal growth (reduction of symptoms on the leaf segment) (Puccinia recondita [2]; curative, well 1-B(1), streptimidone 100 ppm solo)
10%: control of fungal growth (reduction of symptoms on the leaf segment) (Puccinia recondita [1]; well 1-A(1), streptimidone 200 ppm solo) | control of fungal growth (reduction of symptoms on the leaf segment) (Puccinia recondita [1]; well 2-A(1), streptimidone 12.5 ppm solo)
25%: control of fungal growth (reduction of symptoms on the leaf segment) (Puccinia recondita [2]; curative, well 1-C(1), streptimidone 50 ppm solo)
35%: control of fungal growth (reduction of symptoms on the leaf segment) (Puccinia recondita [1]; well 1-B(1), streptimidone 100 ppm solo) | control of fungal growth (reduction of symptoms on the leaf segment) (Puccinia recondita [2]; curative, well 1-D(1), streptimidone 25 ppm solo)
